Biological target: human TRPV1 (Homo sapiens, UniProt Q8NER1)
Experiment: inhibition of low pH-, capsaicin-, anandamide- and NADA-stimulation of human TRPV1
Format: cell-based
Excerpt: The compounds of formulae (I) and (Ia) and I(B) in crystal form B, and their pharmaceutically acceptable salts and, where possible, pharmaceutically acceptable acid addition salts, have beneficial pharmacological activity and, therefore, are useful as pharmaceuticals.

human TRPV1, sequence (Q8NER1 whole entry): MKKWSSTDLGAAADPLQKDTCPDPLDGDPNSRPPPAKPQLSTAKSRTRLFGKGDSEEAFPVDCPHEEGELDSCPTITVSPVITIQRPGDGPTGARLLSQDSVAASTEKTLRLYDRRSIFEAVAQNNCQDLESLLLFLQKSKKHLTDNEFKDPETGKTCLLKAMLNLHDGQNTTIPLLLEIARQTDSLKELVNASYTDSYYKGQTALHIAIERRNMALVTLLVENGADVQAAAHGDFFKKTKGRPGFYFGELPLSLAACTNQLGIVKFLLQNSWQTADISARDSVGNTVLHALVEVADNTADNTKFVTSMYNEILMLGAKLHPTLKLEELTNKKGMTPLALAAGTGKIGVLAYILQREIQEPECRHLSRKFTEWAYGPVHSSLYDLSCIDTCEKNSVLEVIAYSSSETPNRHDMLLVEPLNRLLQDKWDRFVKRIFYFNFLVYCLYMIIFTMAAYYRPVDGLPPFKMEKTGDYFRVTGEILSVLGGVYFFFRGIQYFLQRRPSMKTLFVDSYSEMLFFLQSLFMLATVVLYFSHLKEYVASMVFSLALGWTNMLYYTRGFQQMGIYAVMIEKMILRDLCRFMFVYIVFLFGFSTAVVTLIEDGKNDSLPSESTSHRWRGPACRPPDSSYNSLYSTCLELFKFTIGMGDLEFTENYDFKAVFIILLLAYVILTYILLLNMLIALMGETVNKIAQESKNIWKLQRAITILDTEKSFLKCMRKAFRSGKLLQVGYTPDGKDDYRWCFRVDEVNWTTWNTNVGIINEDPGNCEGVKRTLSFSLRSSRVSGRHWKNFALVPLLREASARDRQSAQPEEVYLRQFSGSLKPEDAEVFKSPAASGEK

CC(C)c1nc2cc(O)ccc2c(=O)n1-c1ccc(C#N)cc1 [Example 1, 4-(7-hydroxy-2-isopropyl-4-oxo-4H-quinazolin-3-yl)-benzonitrile crystal form B]
nature of antagonist activity at human TRPV1: non-competitive and reversible | IC50 (IC50, inhibition of NADA-stimulation of human TRPV1, stimulus: NADA): 27 nM | IC50 (IC50, inhibition of anandamide-stimulation of human TRPV1, stimulus: anandamide): 10 nM | IC50 (IC50, inhibition of capsaicin-stimulation of human TRPV1, stimulus: capsaicin): 12 nM | IC50 (IC50, inhibition of low pH-stimulation of human TRPV1, stimulus: low pH): 5 nM

Reference: US8349852B2, “Quinazolinone derivatives useful as vanilloid antagonists” (Novartis AG, priority 2009, dated 2013)
